Data reported in patent publication US20230167068A1, “BENZOPYRAZOLE COMPOUND” (MEDSHINE DISCOVERY INC., priority 2019, published 2023).
Like-named read-outs stand apart in the source and are kept apart here.

How the values were obtained:
[1] = In vivo pharmacokinetic properties study in male SD rats; conditions: rat, plasma, iv 2 mg/kg
Protocol: Experimental purpose: The purpose of this study was to determine the pharmacokinetic parameters of compounds in male SD rats.
Experimental methods: In this project, two male SD rats were intravenously administered with a dose of 2 mg/kg and a concentration of 0.4 mg/mL. Plasma samples were collected at 0 h (before administration) and 0.0833, 0.25, 0.5, 1, 2, 4, 6, 8, 24 h after administration. Then the collected samples were analyzed by LC-MS/MS and the data were collected. The collected analytical data were used to calculate the relevant pharmacokinetic parameters using Phoenix WinNonlin 6.3 software.

CYP3A4 = molecular target: T1, CYP3A4 (Homo sapiens, UniProt P08684); assay: Human liver microsomal CYP repression experiment; format: in vitro ADME; conditions: for repression on CYP3A4 (in words): conclusion on Table 3; for IC50: mixed human liver microsomes, 5-in-1 probe substrate
T1 construct: incubation system containing human liver microsomes, probe substrates, and co-factors; tissue Corning Inc. or other suppliers; host or cells: mixed (pooled) human liver microsomes
T1 sequence (P08684 whole entry): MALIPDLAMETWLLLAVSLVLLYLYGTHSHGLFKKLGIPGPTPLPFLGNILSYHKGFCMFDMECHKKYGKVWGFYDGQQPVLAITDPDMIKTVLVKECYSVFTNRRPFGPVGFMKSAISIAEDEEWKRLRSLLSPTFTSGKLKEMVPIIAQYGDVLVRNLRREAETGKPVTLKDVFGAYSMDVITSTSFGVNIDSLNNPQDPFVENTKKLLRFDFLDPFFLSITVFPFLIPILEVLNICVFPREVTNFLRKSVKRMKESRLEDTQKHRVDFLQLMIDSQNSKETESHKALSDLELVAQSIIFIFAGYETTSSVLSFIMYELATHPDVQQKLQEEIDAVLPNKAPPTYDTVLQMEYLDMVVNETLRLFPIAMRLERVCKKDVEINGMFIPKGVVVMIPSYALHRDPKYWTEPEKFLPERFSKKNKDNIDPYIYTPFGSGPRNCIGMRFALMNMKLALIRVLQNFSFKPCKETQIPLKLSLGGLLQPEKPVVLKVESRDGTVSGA
Protocol: The purpose of the research project was to evaluate the repression of the test sample on human liver microsomal cytochrome P450 isoenzyme (CYP3A4) using a 5-in-1 probe substrate of CYP isoenzyme.
Mixed human liver microsomes (HLM) were purchased from Corning Inc. (Steuben, New York, USA) or other suppliers and stored at temperatures below -70° C. before use.
The diluted series concentration of the test sample was added to the incubation system containing human liver microsomes, probe substrates, and co-factors of the circulating system, and the control without the test sample but with solvent was used as the enzyme activity control (100%). The concentration of metabolites produced by the probe substrate in the sample was determined by liquid chromatography-tandem mass spectrometry (LC-MS/MS). Non-linear regression analysis of the mean percent activity of the test sample versus concentration was performed using SigmaPlot (V. 11). The IC50 values were calculated by a three- or four-parameter inverse logarithmic equation.

[2] = test system: human peripheral blood mononuclear cells TNF-α; assay: Repression of TNF-α in human peripheral blood mononuclear cells (LPS, ELISA); format: cell-based; conditions: PBMC, 3-fold diluted; for IC50: read-out: hPBMC IC50; for Emax: maximum effect value
Protocol: Experimental purpose: To express the anti-inflammatory activity of the test compound at the cellular level according to the level of TNF-α in human peripheral blood mononuclear cells (hPBMC).
• [0488] 1) The frozen cells were quickly thawed by continuous stirring in a 37° C. water bath. • [0489] 2) 25 mL of fresh pre-heated thawed culture medium was added to a 50 mL centrifuge tube. Then the cells were added gently, drop by drop. • [0490] 3) Cells were centrifuged at 2000 rpm for 10 min (ascending speed: 9, descending speed: 1). • [0491] 4) The supernatant was discarded and the cell particles were resuspended in 25 mL of freshly pre-heated RPMI 1640 culture medium.
• [0493] 5) After thawing and resuscitating the suspended cells, the number of cells was counted and the total number of cells required for the experiment was calculated. • [0494] 6) The cell suspension was diluted with an appropriate volume of cell culture medium. • [0495] 7) The cell suspension was poured into a sterile disposable container. • [0496] 8) 100,000 cells/(100 µL) of cell suspension was transferred to each well of a 96-well plate. • [0497] 9) The cell plates were placed in humidified air, 5% CO2 incubator, 37° C. for 2 hours.
[…] In the second step, the serum-free culture medium was diluted 125 times, and the concentration of DMSO was 0.8%. Then 16.8 µL of the compound diluted in culture medium was transferred to a 100 µL cell plate, and the concentration of DMSO was 0.114%.
After adding the compound, the cell plates were incubated in a 37° C. 5% CO2 incubator for 1 hour.
In the first step, LPS was diluted with ultrapure water to a storage concentration of 1 mg/mL. In the second step, the storage concentration of LPS was diluted to 1 µg/mL in serum-free culture medium. In the third step, serum-free culture medium was 1666.666-fold diluted. Then 16.8 µL of LPS that has been diluted with culture medium was transferred to a 116.8 µL cell plate. At this time, the final concentration of DMSO was 0.1%. After adding LPS, the cell plate was put into a 37° C., 5% CO2 incubator and incubated for 18 hours.
• [0505] 1. The TNF-α antibody was diluted to 1× in the coating solution, and then 100 µL per well was added to a 96-well high-binding performance plate, and the plate was sealed with a membrane and placed at 4° C. for 18 hours. • [0506] 2. 2000 mL of wash buffer was prepared to 1x for later use.
• [0508] 3. After the plate was coated overnight, the coating solution was poured out and washed 3 times with 300 µL of washing buffer per well. • [0509] 4. After the plate was washed, 200 µL of sealing buffer was added to each well, and the plate was sealed with membrane. Incubated for one hour in a 25° C. incubator. • [0510] 5. The cell plates incubated for 18 hours were placed in a centrifuge for centrifugation, temperature: 25° C., speed: 2000 rpm, time: 10 min, ascending speed: 9, descending speed: 1. After centrifugation, 100 µL of cell supernatant from each well was transferred to a 3599 cell plate, and then placed in a 4° C. refrigerator for later use. • [0511] 6. The cell supernatant was diluted 40 times with sealing buffer and placed in a 4° C. refrigerator for later use, and the standard was also placed in a 4° C. refrigerator for later use. • [0512] 7. After the sealing was completed, the sealing solution was poured out and washed three times with 300 µL of washing buffer per well. • [0513] 8. The diluted cell supernatant samples and standards were added to the ELISA plate, and the plate was sealed with membrane. Then incubated for 2 hours in a 25° C. incubator. • [0514] 9. The liquid in the plate was poured out and washed 5 times with 300 µL of washing buffer per well. • [0515] 10. Antibodies were prepared and 100 µL was added to each well and the plate was sealed with sealing membrane. Then incubated for one hour in a 25° C. incubator. • [0516] 11. The liquid in the plate was poured out and washed 7 times with 300 µL of washing buffer per well. • [0517] 12. […]

[3] = test system: MMTV promoter luciferase reporter in HeLa cell line (GR transcription activation); assay: MMTV transcription activation activity, luciferase reporter gene screening system (MMTV_GR transcription activation experiment); format: cell-based; conditions: Homo sapiens
Excerpt: The promoter of mouse mammary tumor virus (MMTV) contains specific binding sites for activating GRs (GREs). To determine the activity of the compounds, a reporter gene (luciferase) was inserted after the MMTV promoter, and this construct was expressed in a stable manner in the genome of the HeLa cell line. MMTV promoter was activated by the test compounds to induce the expression of luciferase, and its activity was detected by luminescence measurement.
• [0442] 1) All the culture media were carefully aspirated, the cell layer was rinsed gently with an appropriate amount of DPBS, and then aspirated. • [0443] 2) An appropriate amount of 0.05% Typsine EDTA was added and incubated in a CO2 incubator for 3-5 minutes to digest the cells. • [0444] 3) The cells were resuspended with an appropriate amount of cell culture medium. • [0445] 4) The amount of cells required was calculated, and the cell concentration was 4×10^3 cells/well. • [0446] 5) The cell suspension was diluted with appropriate cell culture medium. • [0447] 6) Cell suspension was dispensed into a disposable sterile loading slot. • [0448] 7) Inoculated 30 µL per well into a 384-well plate. • [0449] 8) The cell plate was placed in a 37° C. 5% CO2 incubator for 18-24 hours.
Compounds were diluted with DMSO to 1 mM, 0.25 mM, 0.0625 mM, 0.015625 mM, 0.0039 mM, 0.0009765 mM, 0.000244 mM, 0.000061 mM, 0.00001526 mM and 0.0000038125 mM, then diluted 25-fold with serum culture medium treated with activated carbon, and finally 4x concentration compound experimental plate was obtained, prepared before use.
The final DMSO experimental concentration was 0.1%.
MMTV_GR transcription activation activity experiment • [0458] 1) Inoculated cells: Fresh cells were inoculated into 384 white transparent bottom experimental plates at 4×10^3 cells/30 µL/well, and incubated at 37° C. 5% CO2 incubator for 24 hours. • [0459] 2) Compound preparation: The compound plate was prepared before the experiment, and the reference compound (dexamethasone) and the test compound of 4x concentration were prepared. Finally, the experimental plate of 4x concentration compound was obtained. • [0460] 3) Added compound: 10 µL of 4x compound was transferred with Bravo and added to cell plate. Incubated for 18 hours in a 37° C. 5% CO2 incubator. • [0461] 4) 30 µL of Bright-Glo fluorescent detection reagent was transferred to the cell plate. • [0462] 5) Centrifugal incubation for 2 minutes. • [0463] 6) The fluorescence value was measured with the Envision plate reader.
Positive control: 1000 nM dexamethasone (0.1% DMSO)
Negative control: 0.1% DMSO
Test compound: Maximum concentration of 1000 nM, 4-fold dilution, 10 wells in total, repeated.
Dexamethasone: Maximum concentration of 1000 nM, 4-fold dilution, 10 wells in total, repeated.
The graphing software GraphPad Prism5 was used to create the concentration curves of the tested compounds and calculate the IC50 values.

| Structure (SMILES) | clearance [1] [mL/min/kg] | half-life ([1]; read-out: T½ (converted)) [h] | Vd ([1]; read-out: Vdss) [L/kg] | repression on CYP3A4 (in words) (CYP3A4) | IC50 (CYP3A4) [nM] | IC50 ([2]; absolute IC50, test Top concentration 500 nM, 8 concentration (**)) [nM] | Emax ([2]; test Top concentration 500 nM, 8 concentration (**)) [%] | Emax ([3]; HeLa, maximum effect value, positive control 1000 nM dexamethasone, read-out: TA (MMTV transcription activation activity) Effect) [%] | EC50 ([3]; absolute EC50, HeLa MMTV-luciferase cells, 18 h, max concentration 1000 nM, read-out: TA (MMTV transcription activation activity) EC50) [nM] | IC50 ([2]; absolute IC50, test Top concentration 1000 nM, 8 concentration (*)) [nM] | Emax ([2]; test Top concentration 1000 nM, 8 concentration (*)) [%] |
| --- | --- | --- | --- | --- | --- | --- | --- | --- | --- | --- | --- |
| CC(C)[C@H](NC(=O)C(C)(F)F)[C@H](Oc1ccc2c(cnn2-c2ccc(=O)n(C)c2)c1)c1ccccc1 [AZD9567, reference compound] | 4.25 | 1.99 | 0.56 | moderate repression on CYP3A4 | 2950 | 57.4 | 54.6 | – | – | – | – |
| C[C@H](NC(=O)C(C)(F)F)[C@H](Oc1ccc2c(cnn2-c2ccc3nncn3c2)c1)c1ccccc1 [WX022] | – | – | – | – | – | – | – | 101 | 1.59 | 2.42 | 90 |
| C[C@H](NC(=O)C(C)(F)F)[C@H](Oc1ccc2c(cnn2-c2cn(C)nn2)c1)c1ccccc1 [WX053] | – | – | – | significantly improve the repression of CYP3A4 | 15700 | – | – | – | – | – | – |
